Experiment [1] has as its system MIA PaCa-2 (human pancreatic carcinoma) cells. As to the kind of experiment: Cell Viability Assay (CellTiter-Glo), MIA PaCa-2. The class given is cell-based. Conditions: Homo sapiens, MIA PaCa-2, 72 h. As for the experimental part:
Serially-diluted compound or DMSO was added to the cells, and plates were incubated at 37° C., 5% CO2 for 72 h. Cell viability was measured using a CellTiter-Glo® Luminescent Cell Viability Assay kit (Promega) according to the manufacturer's protocol. The luminescence signal of treated samples was normalized to DMSO control, and data were analyzed using a 4-parameter logistic model to calculate IC50 values.
(In general: ATP-based viability assays read luminescence as a measure of living cells.)

Experiment [2] relates to A549 (human lung carcinoma) cells. As to the kind of experiment: Cell Viability Assay (CellTiter-Glo), A549. The class given is cell-based. Conditions: Homo sapiens, A549, 72 h. In short, it runs like this:
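Seeding at 1.67E+04 cells/mL is followed by overnight attachment at 37° C., 5% CO2. Serially diluted compound is added for 72 h. Viability is read by CellTiter-Glo luminescence, scaled to DMSO and fitted (4-parameter logistic) to give IC50.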

In experiment [3] the target is KRAS G12C (Homo sapiens (Human), UniProt P01116, C118A/G12C). As to the kind of experiment: 2 h coupled exchange assay. The following applies: Avg 2 h Coupled exchange IC50, 2 h compound pre-incubation. The class given is biochemical. The protocol: The term “2 h coupled exchange assay” or “20 h coupled exchange assay” as used herein refers to the assay described in the Section entitled “BIOLOGICAL EVALUATION.”
Sequence of KRAS G12C (P01116 other isoform, or with tags, fused parts or gaps G12C/C118A): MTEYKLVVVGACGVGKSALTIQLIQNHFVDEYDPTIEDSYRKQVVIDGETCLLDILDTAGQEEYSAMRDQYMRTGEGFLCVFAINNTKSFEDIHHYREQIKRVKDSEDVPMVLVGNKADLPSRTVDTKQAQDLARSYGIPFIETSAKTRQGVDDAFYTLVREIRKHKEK

Bounds are passed on as bounds.

A word on the IC50: it is the concentration that inhibits the measured activity by half. Take `C=CC(=O)N1CC2(CCN(c3nc4c(c(-c5ccccc5F)c3C#N)CCC(c3scnc3COC)=C4)C2)C1` [Example 23-52, 4-(2-fluorophenyl)-7-(4-(methoxymethyl)-1,3-thiazol-5-yl)-2-(2-(2-propenoyl)-2,6-diazaspiro[3.4]octan-6-yl)-5,6-dihydro-3-quinolinecarbonitrile]: the IC50 came to 779 nM in experiment [1], 3410 nM in experiment [2] and 109 nM in experiment [3].
On the same counts, the results for `C=CC(=O)N1CC2(CCN(c3nc4c(c(-c5cccc(F)c5OC)c3C#N)CCC(c3scnc3C)=C4)C2)C1` [Example 23-53, 4-(3-fluoro-2-methoxyphenyl)-7-(4-methyl-1,3-thiazol-5-yl)-2-(2-(2-propenoyl)-2,6-diazaspiro[3.4]octan-6-yl)-5,6-dihydro-3-quinolinecarbonitrile] are 1230 nM, 8870 nM and 391 nM.
On the same counts, the results for `C=CC(=O)N1CC2(CCN(c3nc4c(c(-c5cccc(F)c5O)c3C#N)CCC(c3scnc3C)=C4)C2)C1` [Example 23-54, 4-(3-fluoro-2-hydroxyphenyl)-7-(4-methyl-1,3-thiazol-5-yl)-2-(2-(2-propenoyl)-2,6-diazaspiro[3.4]octan-6-yl)-5,6-dihydro-3-quinolinecarbonitrile] are 2110 nM, greater than 5000 nM and 112 nM.
As to `C=CC(=O)N1CC2(CCN(c3nc4c(c(-c5cccc(O)c5)c3C#N)CCC(c3scnc3C)=C4)C2)C1` [Example 23-55, 4-(3-hydroxyphenyl)-7-(4-methyl-1,3-thiazol-5-yl)-2-(2-(2-propenoyl)-2,6-diazaspiro[3.4]octan-6-yl)-5,6-dihydro-3-quinolinecarbonitrile], the IC50 in experiment [1] is 2120 nM; in experiment [2], greater than 5000 nM; in experiment [3], 120 nM.
On the same counts, the results for `C=CC(=O)N1CC2(CCN(c3nc4c(c(-c5ccccc5F)c3C#N)CCC(c3scnc3CO)=C4)C2)C1` [Example 23-56, 4-(2-fluorophenyl)-7-(4-(hydroxymethyl)-1,3-thiazol-5-yl)-2-(2-(2-propenoyl)-2,6-diazaspiro[3.4]octan-6-yl)-5,6-dihydro-3-quinolinecarbonitrile] are 487 nM, greater than 5000 nM and 128 nM.
The like results for `C=CC(=O)N1CC2(CCN(c3nc4c(c(-c5ncccc5F)c3C#N)CCC(c3c(C)cnn3C)=C4)C2)C1` [Example 23-58, 7-(1,4-dimethyl-1H-pyrazol-5-yl)-4-(3-fluoro-2-pyridinyl)-2-(2-(2-propenoyl)-2,6-diazaspiro[3.4]octan-6-yl)-5,6-dihydro-3-quinolinecarbonitrile] were, in that order, 2060 nM, 10700 nM and 841 nM.
On to `C=CC(=O)N1CC2(CCN(c3nc4c(c(-c5ncccc5F)c3C#N)CC[C@H](c3scnc3C)C4)C2)C1` [Example 23-60, (7S)-4-(3-fluoro-2-pyridinyl)-7-(4-methyl-1,3-thiazol-5-yl)-2-(2-(2-propenoyl)-2,6-diazaspiro[3.4]octan-6-yl)-5,6,7,8-tetrahydro-3-quinolinecarbonitrile], for which the IC50 in experiment [1] was 47 nM; in experiment [2] it was 14000 nM; in experiment [3], 24 nM.
The like results for `C=CC(=O)N1CC2(CCN(c3nc4c(c(-c5cc(C(F)F)ccc5Cl)c3C#N)CCN(c3scnc3C)C4)C2)C1` [Example 23-61, 4-(2-chloro-5-(difluoromethyl)phenyl)-7-(4-methyl-1,3-thiazol-5-yl)-2-(2-(2-propenoyl)-2,6-diazaspiro[3.4]octan-6-yl)-5,6,7,8-tetrahydro-1,7-naphthyridine-3-carbonitrile] were, in that order, 1910 nM, 12400 nM and 103 nM.
In the case of `C=CC(=O)N1CC2(CCN(c3nc4cc(OC)ccc4c(-c4c(C)ccc5[nH]ncc45)c3F)C2)C1` [Example 27-1, 1-(6-(3-fluoro-7-methoxy-4-(5-methyl-1H-indazol-4-yl)-2-quinolinyl)-2,6-diazaspiro[3.4]octan-2-yl)-2-propen-1-one], the IC50 is 996 nM in experiment [1], greater than 5000 nM in experiment [2] and 134 nM in experiment [3].
On the same counts, the results for `C=CC(=O)N1CC2(CCN(c3nc4ccccc4c(-c4c(C)ccc5[nH]ncc45)c3Cl)C2)C1` [Example 27-2, 1-(6-(3-chloro-4-(5-methyl-1H-indazol-4-yl)-2-quinolinyl)-2,6-diazaspiro[3.4]octan-2-yl)-2-propen-1-one] are 2640 nM, greater than 5000 nM and 121 nM.
On the same counts, the results for `C=CC(=O)N1CC2(CCN(c3cc4c(c(-c5c(C)ccc6[nH]ncc56)c3Cl)OCCC4)C2)C1` [Example 31-1, 1-(6-(7-chloro-8-(5-methyl-1H-indazol-4-yl)-3,4-dihydro-2H-chromen-6-yl)-2,6-diazaspiro[3.4]octan-2-yl)-2-propen-1-one] are 34 nM, greater than 5000 nM and 76 nM.
Take `C=CC(=O)N1CC2(CCN(c3nc4c(c(-c5ccccc5F)c3C#N)CCN(c3nccn3C)C4)C2)C1` [Example 34-1, 4-(2-fluorophenyl)-7-(1-methyl-1H-imidazol-2-yl)-2-(2-(2-propenoyl)-2,6-diazaspiro[3.4]octan-6-yl)-5,6,7,8-tetrahydro-1,7-naphthyridine-3-carbonitrile]: the IC50 in experiment [1] was 3510 nM; in experiment [2] it was 14100 nM; in experiment [3] it was 814 nM.
The like results for `C=CC(=O)N1CC2(CCN(c3nc4c(c(-c5cccc(O)c5F)c3C#N)CCN(c3scnc3C)C4)C2)C1` [Example 35-1, 4-(2-fluoro-3-hydroxyphenyl)-7-(4-methyl-1,3-thiazol-5-yl)-2-(2-(2-propenoyl)-2,6-diazaspiro[3.4]octan-6-yl)-5,6,7,8-tetrahydro-1,7-naphthyridine-3-carbonitrile] were, in that order, greater than 5000 nM, greater than 5000 nM and 67 nM.
The like results for `C=CC(=O)N1CC2(CCN(c3nc4c(c(-c5c(C)ccc6cnn(C)c56)c3C)CCN(C3(C)COC3)C4)C2)C1` [Example 36-1, 1-(6-(4-(1,6-dimethyl-1H-indazol-7-yl)-3-methyl-7-(3-methyl-3-oxetanyl)-5,6,7,8-tetrahydro-1,7-naphthyridin-2-yl)-2,6-diazaspiro[3.4]octan-2-yl)-2-propen-1-one] were, in that order, 335 nM, 14600 nM and 589 nM.
On the same counts, the results for `C=CC(=O)N1CC2(CCN(c3nc4c(c(-c5c(C)ccc(OC)c5N)c3C#N)COC(C)(C)C4)C2)C1` [Example 37-1, 4-(2-amino-3-methoxy-6-methylphenyl)-7,7-dimethyl-2-(2-(2-propenoyl)-2,6-diazaspiro[3.4]octan-6-yl)-7,8-dihydro-5H-pyrano[4,3-b]pyridine-3-carbonitrile] are 96 nM, greater than 25000 nM and 214 nM.
On to `C=CC(=O)N1CC2(CCN(c3nc4c(c(-c5cc(N)cc6ccccc56)c3C#N)COC(C)(C)C4)C2)C1` [Example 38-1, 4-(3-amino-1-naphthalenyl)-7,7-dimethyl-2-(2-(2-propenoyl)-2,6-diazaspiro[3.4]octan-6-yl)-7,8-dihydro-5H-pyrano[4,3-b]pyridine-3-carbonitrile], for which the IC50 in experiment [1] worked out at 348 nM; in experiment [2], 12700 nM; in experiment [3], 407 nM.
